IC50 and EC50 data for 1 molecule are collected here from paper PMC11671014 (PLOS Pathogens, 2024).

The target of assay [1] is Atg7 (autophagy-related protein-7) (Homo sapiens, UniProt O95352). Briefly: ATG7 E1-E2 transthiolation HTRF assay (GABARAP). The assay is classed as biochemical. Particulars: read-out: ATG7 IC50 HTRF RH-GABARAP. An excerpt: An Homogeneous Time-Resolved Fluorescence (HTRF) enzyme assay was employed to evaluate compound activity against ATG7 as previously described. In this assay, a Flag-tagged ATG8 homolog (GABA type A receptor-associated protein; GABARAP) is activated by ATG7 and then transthiolated to a GST-tagged E2 (ATG3). The product of the enzyme reaction, Flag-GABARAP-ATG3-GST, is quantified by measuring FRET between Europium-Cryptate labelled monoclonal anti-Flag M2 (FLAG M2-Eu cryptate; Revvity, Cat# 61FG2KLB) and […] (Anti-GST IgG conjugated to SureLight-Allophycocyanin) (Revvity, Cat# AD0059G)). The activation and transthiolation of ubiquitin by UAE, activation and transthiolation of NEDD8 by NAE and activation and transthiolation of SUMO by SAE were all assayed in a similar fashion with appropriately tagged ubiquitin-like proteins and E2 conjugating enzymes as described.
Chain of Atg7 (autophagy-related protein-7) (O95352 whole entry): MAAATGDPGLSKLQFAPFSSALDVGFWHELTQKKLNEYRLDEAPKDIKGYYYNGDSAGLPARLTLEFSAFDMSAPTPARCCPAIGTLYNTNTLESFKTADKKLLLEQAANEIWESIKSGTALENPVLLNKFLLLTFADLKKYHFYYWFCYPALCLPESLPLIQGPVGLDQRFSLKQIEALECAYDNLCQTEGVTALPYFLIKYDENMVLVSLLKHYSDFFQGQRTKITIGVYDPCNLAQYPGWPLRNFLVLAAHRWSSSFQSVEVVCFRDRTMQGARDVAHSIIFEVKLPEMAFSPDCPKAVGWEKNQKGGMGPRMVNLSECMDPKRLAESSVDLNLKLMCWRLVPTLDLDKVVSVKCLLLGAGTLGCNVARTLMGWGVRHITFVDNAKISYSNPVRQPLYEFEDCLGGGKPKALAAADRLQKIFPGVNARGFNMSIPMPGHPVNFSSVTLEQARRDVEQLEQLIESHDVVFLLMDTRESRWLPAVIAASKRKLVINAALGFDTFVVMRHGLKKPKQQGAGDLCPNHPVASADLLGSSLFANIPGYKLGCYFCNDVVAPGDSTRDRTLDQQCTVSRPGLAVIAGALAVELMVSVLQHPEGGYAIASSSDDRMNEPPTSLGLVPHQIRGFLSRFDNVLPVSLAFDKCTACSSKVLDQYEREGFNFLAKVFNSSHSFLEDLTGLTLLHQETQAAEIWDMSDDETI
(In general: TR-FRET usually uses a lanthanide donor and a delayed reading to cut background.)

Assay [2] relates to P. vivax Brazilian field isolates. Briefly: Ex vivo drug susceptibility of Brazilian field isolates (P. vivax). It counts as cell-based. As to conditions: Plasmodium vivax. How it is done: Compounds were assayed on ten P. vivax isolates and seven P. falciparum Brazilian isolates collected from mono-infected patients, who had signed a written informed consent form to participate in the study, using previously described methods. The initial parasitemia ranged from 2,100–8,000 parasites/μL for P. vivax and 3,500–9,000 parasites/μL for P. falciparum isolates. Artesunate and chloroquine were assayed in parallel as standard compounds. The analyses included only the isolates that were incubated for ≥ 40 h with the compounds.

The structures appear in SMILES notation. Like-named read-outs stand apart in the source and are kept apart here.

As usually defined, the IC50 is the concentration that gives 50% inhibition. By EC50 is commonly meant the concentration needed to bring the measured effect to its halfway point. Turning to `CC(C)c1nn([C@@H]2O[C@H](COS(N)(=O)=O)[C@@H](O)[C@H]2O)c2ncnc(N)c12` [ML471, ((2R,3S,4R,5R)-5-(4-amino-3-isopropyl-1H-pyrazolo[3,4-d]pyrimidin-1-yl)-3,4-dihydroxytetrahydrofuran-2-yl)methyl sulfamate], the IC50 in assay [1] was found to be 22 ± 9 nM. Moreover, the EC50 in assay [2] (range over n = 10 isolates, read-out: EC50 range, P. vivax Brazilian field isolates) was 1.2 to 62 nM; in assay [2] (read-out: Median EC50, P. vivax Brazilian field isolates), 8 nM.
